Test results published in US11225505B2, “Antimicrobial polymyxin derivative compounds” (MONASH UNIVERSITY, priority 2015, dated 2022).
≈ marks a conversion by molar mass, not a printed value. Where a SMILES comes first, the peptide text is derived from it. Bridges are numbered along the chain shown (N, C = ends). [ ]: non-standard residue; d: D form. The star is where a group is joined. X18 = O=C(c1cc(-c2ccccc2)[nH]n1)*; X57 = O=C(c1nc2cc(Cl)ccc2[nH]1)*; X63 = O=C(c1ccc(C(F)(F)F)nc1Cl)*; X27 = O=C(c1sc2ccccc2c1Cl)*; X17 = O=C(c1ncc(Br)cc1Cl)*; X1 = O=C(c1ncc(Cl)cc1Cl)*; X50 = O=C(c1sc(Br)cc1Br)*; X29 = O=C(c1cc(Cl)ccn1)*; Dab = NCC[C@H](N)C(=O)O; Abu = CC[C@H](N)C(=O)O; Dap = NC[C@H](N)C(=O)O

Columns and labels:
Format in all cases: cell-based
[1] = test system: Acinetobacter baumannii FADDI-AB030; experiment: microbe, parasite or virus in culture; conditions: FADDI-AB030
Summary of the method: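 Broth microdilution MIC in cation-adjusted Mueller-Hinton broth per CLSI M100-S24; lipopeptides tested as TFA salts. FADDI-AB030 is a multidrug-resistant clinical isolate. Polymyxin B sulphate served as control.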

[2] = test system: Acinetobacter baumannii ATCC 17978; conditions: ATCC 17978
Summary of the method: (§1)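 MIC; CLSI broth microdilution; cation-adjusted MH broth; test articles as TFA salts; polymyxin B control; polymyxin-susceptible isolates.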

[3] = test system: Enterobacter cloacae FADDI-EC003; conditions: FADDI-EC003
Summary of the method: as §1

[4] = test system: Acinetobacter baumannii FADDI-AB034; conditions: FADDI-AB034
Summary of the method: as §1

[5] = test system: Klebsiella pneumoniae FADDI-KP032; conditions: FADDI-KP032
Summary of the method: as §1

[6] = test system: Enterobacter cloacae FADDI-EC006; conditions: FADDI-EC006
Summary of the method: as §1

[7] = test system: Klebsiella pneumoniae FADDI-KP022; conditions: FADDI-KP022
Summary of the method: as §1

[8] = test system: Pseudomonas aeruginosa FADDI-PA038; conditions: FADDI-PA038
Summary of the method: as §1

[9] = test system: Pseudomonas aeruginosa FADDI-PA01; conditions: FADDI-
Summary of the method: as §1

[10] = test system: Klebsiella pneumoniae Kp BM1; conditions: Kp BM1
Summary of the method: (§2)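 In cation-adjusted Mueller-Hinton broth, each lipopeptide (TFA salt) was titrated against the bacteria by microdilution and the minimum inhibitory concentration recorded per CLSI M100-S24; polymyxin B sulphate ran in parallel.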

[11] = test system: Enterobacter cloacae FADDI-EC001; conditions: FADDI-EC001
Summary of the method: as §2

[12] = test system: Pseudomonas aeruginosa ATCC 27853; conditions: ATCC 27853
Summary of the method: as §1

[13] = test system: Pseudomonas aeruginosa FADDI-PA022; conditions: FADDI-PA022
Summary of the method: as §1

Row | SMILES | Minimum inhibitory concentration [1] | Minimum inhibitory concentration [2] | Minimum inhibitory concentration [3] | Minimum inhibitory concentration [4] | Minimum inhibitory concentration [5] | Minimum inhibitory concentration [6] | Minimum inhibitory concentration [7] | Minimum inhibitory concentration [8] | Minimum inhibitory concentration [9] | Minimum inhibitory concentration [10] | Minimum inhibitory concentration [11] | Minimum inhibitory concentration [12] | Minimum inhibitory concentration [13]
1 | CC[C@@H]1NC(=O)[C@@H](CC(C)C)NC(=O)[C@H](CCN)NC(=O)[C@@H](NC(=O)[C@H](CN)NC(=O)[C@@H](NC(=O)[C@H](CCN)NC(=O)c2nc3cc(Cl)ccc3[nH]2)[C@@H](C)O)CCNC(=O)[C@H]([C@@H](C)O)NC(=O)[C@H](CCN)NC(=O)[C@H](CCN)NC1=O [Compound 71] (X57-[Dab]T[Dap][Dab][Dab][dL][Abu][Dab][Dab]T; lactam 4-C) | 0.25 µg/mL (≈ 0.214 µM) | 0.5 µg/mL (≈ 0.429 µM) | <0.125 µg/mL | 0.5 µg/mL (≈ 0.429 µM) | <0.125 µg/mL | <0.125 µg/mL | <0.125 µg/mL | 2 µg/mL (≈ 1.72 µM) | 0.25 µg/mL (≈ 0.214 µM) | <0.125 µg/mL | 0.25 µg/mL (≈ 0.214 µM) | 0.5 µg/mL (≈ 0.429 µM) | 0.5 µg/mL (≈ 0.429 µM)
2 | CC[C@@H]1NC(=O)[C@@H](CC(C)C)NC(=O)[C@H](CCN)NC(=O)[C@@H](NC(=O)[C@H](CN)NC(=O)[C@@H](NC(=O)[C@H](CCN)NC(=O)c2sc3ccccc3c2Cl)[C@@H](C)O)CCNC(=O)[C@H]([C@@H](C)O)NC(=O)[C@H](CCN)NC(=O)[C@H](CCN)NC1=O [Compound 61] (X27-[Dab]T[Dap][Dab][Dab][dL][Abu][Dab][Dab]T; lactam 4-C) | <0.125 µg/mL | <0.125 µg/mL | <0.125 µg/mL | <0.125 µg/mL | <0.125 µg/mL | <0.125 µg/mL | <0.125 µg/mL | 0.25 µg/mL (≈ 0.212 µM) | <0.125 µg/mL | 0.25 µg/mL (≈ 0.212 µM) | 0.25 µg/mL (≈ 0.212 µM) | 0.25 µg/mL (≈ 0.212 µM) | 0.25 µg/mL (≈ 0.212 µM)
3 | CC[C@@H]1NC(=O)[C@@H](CC(C)C)NC(=O)[C@H](CCN)NC(=O)[C@@H](NC(=O)[C@H](CN)NC(=O)[C@@H](NC(=O)[C@H](CCN)NC(=O)c2ncc(Br)cc2Cl)[C@@H](C)O)CCNC(=O)[C@H]([C@@H](C)O)NC(=O)[C@H](CCN)NC(=O)[C@H](CCN)NC1=O [Compound 33] (X17-[Dab]T[Dap][Dab][Dab][dL][Abu][Dab][Dab]T; lactam 4-C) | 0.5 µg/mL (≈ 0.415 µM) | 0.5 µg/mL (≈ 0.415 µM) | <0.125 µg/mL | 0.5 µg/mL (≈ 0.415 µM) | <0.125 µg/mL | <0.125 µg/mL | <0.125 µg/mL | 0.5 µg/mL (≈ 0.415 µM) | 0.25 µg/mL (≈ 0.207 µM) | <0.125 µg/mL | <0.125 µg/mL | 0.25 µg/mL (≈ 0.207 µM) | 0.25 µg/mL (≈ 0.207 µM)
4 | CC[C@@H]1NC(=O)[C@@H](CC(C)C)NC(=O)[C@H](CCN)NC(=O)[C@@H](NC(=O)[C@H](CN)NC(=O)[C@@H](NC(=O)[C@H](CCN)NC(=O)c2cc(-c3ccccc3)[nH]n2)[C@@H](C)O)CCNC(=O)[C@H]([C@@H](C)O)NC(=O)[C@H](CCN)NC(=O)[C@H](CCN)NC1=O [Compound 84] (X18-[Dab]T[Dap][Dab][Dab][dL][Abu][Dab][Dab]T; lactam 4-C) | 0.5 µg/mL (≈ 0.432 µM) | 0.5 µg/mL (≈ 0.432 µM) | <0.125 µg/mL | 0.5 µg/mL (≈ 0.432 µM) | 0.25 µg/mL (≈ 0.216 µM) | <0.125 µg/mL | <0.125 µg/mL | 0.5 µg/mL (≈ 0.432 µM) | 0.25 µg/mL (≈ 0.216 µM) | <0.125 µg/mL | 0.25 µg/mL (≈ 0.216 µM) | 0.25 µg/mL (≈ 0.216 µM) | 0.25 µg/mL (≈ 0.216 µM)
5 | CC(C)C[C@H]1NC(=O)[C@H](CCN)NC(=O)[C@@H](NC(=O)[C@H](CN)NC(=O)[C@@H](NC(=O)[C@H](CCN)NC(=O)c2sc(Br)cc2Br)[C@@H](C)O)CCNC(=O)[C@H]([C@@H](C)O)NC(=O)[C@H](CCN)NC(=O)[C@H](CCN)NC(=O)[C@H](C)NC1=O [Compound 99] (X50-[Dab]T[Dap][Dab][Dab][dL]A[Dab][Dab]T; lactam 4-C) | 0.5 µg/mL (≈ 0.403 µM) | 1 µg/mL (≈ 0.806 µM) | 0.25 µg/mL (≈ 0.201 µM) | 0.5 µg/mL (≈ 0.403 µM) | <0.125 µg/mL | <0.125 µg/mL | <0.125 µg/mL | 1 µg/mL (≈ 0.806 µM) | 0.25 µg/mL (≈ 0.201 µM) | 0.25 µg/mL (≈ 0.201 µM) | <0.125 µg/mL | 0.25 µg/mL (≈ 0.201 µM) | 0.25 µg/mL (≈ 0.201 µM)
6 | C[C@@H](O)[C@@H]1NC(=O)[C@H](CCN)NC(=O)[C@H](CCN)NC(=O)[C@H]([C@@H](C)O)NC(=O)[C@@H](Cc2ccccc2)NC(=O)[C@H](CCN)NC(=O)[C@@H](NC(=O)[C@H](CN)NC(=O)[C@@H](NC(=O)[C@H](CCN)NC(=O)c2ncc(Cl)cc2Cl)[C@@H](C)O)CCNC1=O [Compound 11] (X1-[Dab]T[Dap][Dab][Dab][dF]T[Dab][Dab]T; lactam 4-C) | 2 µg/mL (≈ 1.65 µM) | 1 µg/mL (≈ 0.826 µM) | <0.125 µg/mL | 1 µg/mL (≈ 0.826 µM) | <0.125 µg/mL | <0.125 µg/mL | <0.125 µg/mL | 1 µg/mL (≈ 0.826 µM) | 0.5 µg/mL (≈ 0.413 µM) | 1 µg/mL (≈ 0.826 µM) | <0.125 µg/mL | 0.25 µg/mL (≈ 0.206 µM) | 0.25 µg/mL (≈ 0.206 µM)
7 | CC[C@@H]1NC(=O)[C@@H](CC(C)C)NC(=O)[C@H](CCN)NC(=O)[C@@H](NC(=O)[C@H](CN)NC(=O)[C@@H](NC(=O)[C@H](CCN)NC(=O)c2cc(Cl)ccn2)[C@@H](C)O)CCNC(=O)[C@H]([C@@H](C)O)NC(=O)[C@H](CCN)NC(=O)[C@H](CCN)NC1=O [Compound 26] (X29-[Dab]T[Dap][Dab][Dab][dL][Abu][Dab][Dab]T; lactam 4-C) | 0.5 µg/mL (≈ 0.444 µM) | 0.5 µg/mL (≈ 0.444 µM) | <0.125 µg/mL | 0.5 µg/mL (≈ 0.444 µM) | 0.25 µg/mL (≈ 0.222 µM) | 2 µg/mL (≈ 1.78 µM) | <0.125 µg/mL | 0.5 µg/mL (≈ 0.444 µM) | 0.25 µg/mL (≈ 0.222 µM) | 0.25 µg/mL (≈ 0.222 µM) | 0.25 µg/mL (≈ 0.222 µM) | 0.25 µg/mL (≈ 0.222 µM) | 0.25 µg/mL (≈ 0.222 µM)
8 | C[C@@H]1NC(=O)[C@@H](Cc2ccccc2)NC(=O)[C@H](CCN)NC(=O)[C@@H](NC(=O)[C@H](CN)NC(=O)[C@@H](NC(=O)[C@H](CCN)NC(=O)c2ncc(Cl)cc2Cl)[C@@H](C)O)CCNC(=O)[C@H]([C@@H](C)O)NC(=O)[C@H](CCN)NC(=O)[C@H](CCN)NC1=O [Compound 9] (X1-[Dab]T[Dap][Dab][Dab][dF]A[Dab][Dab]T; lactam 4-C) | 2 µg/mL (≈ 1.69 µM) | 2 µg/mL (≈ 1.69 µM) | <0.125 µg/mL | 2 µg/mL (≈ 1.69 µM) | 0.25 µg/mL (≈ 0.212 µM) | 1 µg/mL (≈ 0.847 µM) | <0.125 µg/mL | 0.5 µg/mL (≈ 0.423 µM) | 0.25 µg/mL (≈ 0.212 µM) | 0.25 µg/mL (≈ 0.212 µM) | <0.125 µg/mL | 0.25 µg/mL (≈ 0.212 µM) | 0.25 µg/mL (≈ 0.212 µM)
9 | CC[C@@H]1NC(=O)[C@@H](CC(C)C)NC(=O)[C@H](CCN)NC(=O)[C@@H](NC(=O)[C@H](CN)NC(=O)[C@@H](NC(=O)[C@H](CCN)NC(=O)c2ccc(C(F)(F)F)nc2Cl)[C@@H](C)O)CCNC(=O)[C@H]([C@@H](C)O)NC(=O)[C@H](CCN)NC(=O)[C@H](CCN)NC1=O [Compound 40] (X63-[Dab]T[Dap][Dab][Dab][dL][Abu][Dab][Dab]T; lactam 4-C) | <0.125 µg/mL | 0.5 µg/mL (≈ 0.419 µM) | <0.125 µg/mL | <0.125 µg/mL | <0.125 µg/mL | <0.125 µg/mL | <0.125 µg/mL | 1 µg/mL (≈ 0.837 µM) | 0.5 µg/mL (≈ 0.419 µM) | <0.125 µg/mL | <0.125 µg/mL | 0.5 µg/mL (≈ 0.419 µM) | 0.5 µg/mL (≈ 0.419 µM)
